According to patent publication US5744453A, “Polyamine conjugates for treatment of infection” (priority 1996, dated 1998):
≈ marks a conversion by molar mass, not a printed value.

Columns and labels:
[1] = system: Escherichia coli strain 25922; test: Determination of MIC against bacteria (Table 1), E. coli 25922; format: cell-based; conditions: Escherichia coli, 25922, 24 h, read-out: minimum inhibitory concentration (MIC), E. coli 25922
Experimental: (§1) Antibiotic indicator strains Escherichia coli strain 25922, Enterococcus faecalis 29212, Pseudomonas aeruginosa 27853, and Staphylococcus aureus 29213 are obtained from the American Type Tissue Culture Collection (ATCC) in Rockville, Md. The cystic fibrosis isolate, Pseudomonas aeruginosa 39324, is also obtained from ATCC. Bacteria are routinely cultivated in cation-supplemented Mueller-Hinton broth (CAMHB) or agar at 37° C.
(§2) The minimum inhibitory concentration (MIC) of glycosylated and non-glycosylated steroidal polyamines for antibiotic indicator strains is determined by dissolving the test compounds in deionized water to a final concentration of 1 mg per mL. […] These solutions are sterilized by filtration through 0.22 micron syringe filters.
(§3) Stock solutions of individual compounds are serially diluted (two-fold) in sterile CAMHB in 96-well tissue culture dishes (Falcon) and inoculated with antibiotic indicator strains that are prepared as described below.
(§4) Antibiotic indicator strains are grown in 5 mL of CAMHB for 3-4 h at 37° C. with shaking (200 rpm) on a New Brunswick rotary shaker. Bacteria are adjusted to a turbidity that matched a 0.5 McFarland standard (ca. 10^8 CFU per mL) in sterile 0.85% saline. These bacterial suspensions are diluted 1:20 in sterile 0.85% saline and 10 μL (ca. […]) of each suspension is used to inoculate individual wells of a 96 well plate that contained different concentrations of the test compounds. Following inoculation, the plates are sealed with plastic tape, incubated for 24 h at 37° C. and visually inspected for bacterial growth. CAMHB inoculated with each of the antibiotic test strains and uninoculated CAMBH plus each of the test compounds served as positive and negative controls.

[2] = system: Pseudomonas aeruginosa 27853; test: Determination of MIC against bacteria (Table 1), P. aeruginosa 27853; format: cell-based; conditions: Pseudomonas aeruginosa, 27853, 24 h, read-out: minimum inhibitory concentration (MIC), P. aeruginosa 27853
Experimental: as §1, §2, §3, §4

[3] = system: Enterococcus faecalis 29212; test: Determination of MIC against bacteria (Table 1), E. faecalis 29212; format: cell-based; conditions: Enterococcus faecalis, 29212, 24 h, read-out: minimum inhibitory concentration (MIC), E. faecalis 29212
Experimental: as §1, §2, §3, §4

[4] = system: Staphylococcus aureus 29213; test: Determination of MIC against bacteria (Table 1), S. aureus 29213; format: cell-based; conditions: Staphylococcus aureus, 29213, 24 h, read-out: minimum inhibitory concentration (MIC), S. aureus 29213
Experimental: as §1, §2, §3, §4

[5] = system: Pseudomonas aeruginosa 39324; test: Determination of MIC against bacteria (Table 1), P. aeruginosa 39324 (cystic fibrosis isolate); format: cell-based; conditions: Pseudomonas aeruginosa, 39324, 24 h, read-out: minimum inhibitory concentration (MIC), P. aeruginosa 39324
Experimental: as §1, §2, §3, §4

[6] = Solubility in water; format: physicochemical; conditions: trifluoroacetate salt
Experimental: (§5) To a solution of spermine (0.8 g, 2 mmol) and triethylamine (0.3 mL) in 5 mL of DMF is added dropwise the N-oxysuccinimidechenodeoxycholate (1.0 g, 2 mmol) in 5 mL of DMF. The mixture is stirred overnight at room temperature, then poured into DCM (100 mL). The precipitate of the hydroxysuccinimide is filtered, and the filtrate is evaporated to give a liquid phase, which is poured into water (100 mL). The precipitate of the product is obtained. It is dissolved in MeOH (5 mL) and passed through a CHP-20 reverse-phase column. A […] in water solvent system is used to elute the product. The solvent is removed by evaporation, and the residue is dissolved in 1 mL of trifluoroacetic acid. The resulting solution is diluted up to 10 mL with water, filtered, and the filtrate subsequently lyophilized to afford 0.9 g (50% yield) of a solid (m.p. 96°-100° C.). […] A 5% solution of the trifluoroacetate salt of the chenodeoxycholic acid-spermine conjugate is stable at room temperature over about 12-24 h, after which a precipitate of the base separates as a slurry. TLC (MeOH:i-PrNH2 :DCM 1:1:2) Rf 0.7. IR (KBr): 3406, 2939, 2869, 1778 (COOH), 1680 (CONH--), 1553, 1458, 1196, 834, 722 cm^-1. ^1 H NMR (D2 O): δ3.75 (s, 1H), 3.4 (s, 1H), 2.8-3.15 (m, 12H), 2.2-1.2 (m, 39H), 0.9 (d, 3H), 0.86 (s, 3H), 0.55 (s, 3H). Fab MS: (M+Na^+)=598. Anal. Calc. for C34 H64 N4 O3.3CF3 COOH: C 52.5; H 7.29; N 6.09. […]

[7] = Stability of a 5% solution of the trifluoroacetate salt at room temperature; format: physicochemical
Experimental: as §5

[8] = system: E. coli 25922; test: Augmentation assay: MIC of erythromycin (Table 2), E. coli 25922; format: cell-based; conditions: Escherichia coli, 25922, 24 h, read-out: MIC of erythromycin, E. coli 25922
Experimental: (§6) Stock solutions 1-2 mg/mL of test compounds are prepared in distilled water, filter-sterilized through a […] filter and diluted in CAMHB to the desired starting concentration. Aliquots of each test compound (0.1 mL), at 2× the final concentration, are added to the first rows of 96 well plates. The remaining wells of these plates are charged with 0.1 mL aliquots of each test compound at the desired final concentration. Subsequently, 0.1 mL of solutions of erythromycin, gentamicin, or vancomycin, prepared in CAMHB, are added to the first rows of these plates and serially diluted.
(§7) The wells are inoculated in duplicate with each of four antibiotic indicator strains prepared as described previously above. The final concentrations of antibiotics tested in these experiments range from 0.185-250 μg per mL. Plates containing each of the antibiotics serially diluted in CAMHB alone are also inoculated with antibiotic indicator strains to determine the MIC of erythromycin, gentamicin and vancomycin in the absence of the compounds of the invention. The plates are sealed with plastic tape, incubated in for 24 h at 37° C., visually inspected for bacterial growth. The MIC of erythromycin, gentamicin and vancomycin for each of the indicator strains in the presence or absence of test compound is subsequently determined.

[9] = system: P. aeruginosa 27853; test: Augmentation assay: MIC of erythromycin (Table 2), P. aeruginosa 27853; format: cell-based; conditions: Pseudomonas aeruginosa, 27853, 24 h, read-out: MIC of erythromycin, P. aeruginosa 27853
Experimental: as §6, §7

[10] = system: P. aeruginosa 39324; test: Augmentation assay: MIC of erythromycin (Table 2), P. aeruginosa 39324; format: cell-based; conditions: Pseudomonas aeruginosa, 39324, 24 h, read-out: MIC of erythromycin, P. aeruginosa 39324
Experimental: as §6, §7

Compound: C[C@H](CCC(=O)NCCCNCCCCNCCCN)[C@H]1CC[C@H]2[C@@H]3[C@H](O)C[C@@H]4C[C@H](O)CC[C@]4(C)[C@H]3CC[C@]12C [Compound H, 3α,7α-dihydroxy-12-deoxy-5β-cholan-24-oic acid, N-(4,9-diaza-12-aminododecyl)amide]
- MIC [1]: 25 µg/mL (≈ 43.3 µM)
- MIC [2]: 12.5 µg/mL (≈ 21.7 µM)
- MIC [3]: 3.12 µg/mL (≈ 5.41 µM)
- MIC [4]: 6.25 µg/mL (≈ 10.8 µM)
- MIC [5]: 50 to 100 µg/mL (≈ 86.7 to 173 µM)
- solubility in water [6]: soluble in water
- stability of 5% solution, time before a precipitate of the base separates [7]: 12 to 24 h

Compound: CC[C@H]1OC(=O)[C@H](C)[C@@H](O[C@H]2C[C@@](C)(OC)[C@@H](O)[C@H](C)O2)[C@H](C)[C@@H](O[C@@H]2O[C@H](C)C[C@H](N(C)C)[C@H]2O)[C@](C)(O)C[C@@H](C)C(=O)[C@H](C)[C@@H](O)[C@]1(C)O [Erythromycin, erythromycin]
- MIC [8]: 125 µg/mL
- MIC [9]: > 250 µg/mL
- MIC [10]: > 250 µg/mL
